Tests used:
[1] = test system: HCT116 cells cotransfected with the FOP control vector (non-functional TCF elements); experiment: HCT116 FOPFlash control reporter assay (FOP control vector, luciferase); assay type: cell-based; conditions: Homo sapiens, HCT-116, 36 hours incubation, dilution series 50 μM to 15 nM, luciferase expression
Method: In a parallel approach, HCT116 cells were cotransfected with the FOP control vector and pcDNA3. The FOP vector is identical to the TOP construct, but it contains instead of functional TCF elements a randomized, non-functional sequence. For this transfection a stable transfected cell line was generated as well.
(§1) In preparation of the assay, the two cell lines were plated 24 hours before at 10000 cells per well of a 384 micro titre plate (MTP) in 30 μL growth medium. Selective inhibitory activity for small molecules on the mutated Wnt pathway was determined after parallel incubation of both (TOP and FOP) HCT116 reporter cell lines with a compound dilution series from 50 μM to 15 nM in steps of 3.16-fold dilutions in CAFTY buffer (130 mM NaCl, 5 mM KCl, 20 mM HEPES, 1 mM MgCl2, 5 mM NaHCO3, pH 7.4) containing 2 mM Ca^2+ and 0.01% BSA. The compounds were thereby serially prediluted in 100% DMSO and thereafter in addition 50 fold into the CAFTY compound dilution buffer (described above). From this dilution 10 μL were added to the cells in 30 μL growth medium and incubated for 36 hours at 37° C. and 5% CO2.

[2] = test system: constitutive active colorectal cancer cell (CRC) Wnt pathway; experiment: HCT116 TOPFlash cellular reporter assay (Super TopFlash vector, luciferase); assay type: cell-based; conditions: Homo sapiens, HCT-116; HCT116 Super TopFlash reporter cells, 36 hours incubation, dilution series 50 μM to 15 nM, luciferase expression
Method: In order to discover and characterize small molecules which inhibit the constitutive active colorectal cancer cell (CRC) Wnt pathway, a cellular reporter assay was employed. The corresponding assay cell was generated by transfection of the colorectal cancer cell line HCT116 (ATCC, #CCL-247) with the Super TopFlash vector (Morin, Science 275, 1997, 1787-1790; Molenaar et al., Cell 86 (3), 1996, 391-399). The HCT116 cell line is cultivated at 37° C. and 5% CO2 in DMEM/F-12 (Life Technologies, #11320-074), supplemented with 2 mM glutamine, 20 mM HEPES, 1.4 mM pyruvate, 0.15% Na-bicarbonate and 10% foetal bovine serum (GIBCO, #10270), this cancer cell line is pathophysiological relevant since it carries a deletion of position S45 in the β-catenin gene, leading to constitutive active Wnt signaling. Stable transfectants were generated by cotransfection with pcDNA3 and selection of stable transfected cells with 1 mg/ml G418.
as §1

SMILES | IC50 [1] [µM] | IC50 [2] [µM]
COc1ccc(C(=O)Nc2ccc(-c3ccccc3)cc2)cc1C(=O)Nc1cccnc1 [Example 55, N^1-(biphenyl-4-yl)-4-methoxy-N^3-(pyridin-3-yl)isophthalamide] | 23 | 4.9
COc1ccc(NC(=O)c2ccc(-c3ccccc3)cc2)cc1C(=O)Nc1ccncc1Cl [Example 9, N-{3-[(3-chloropyridin-4-yl)carbamoyl]-4-methoxyphenyl}biphenyl-4-carboxamide] | ≥ 50 | 0.149
COc1ccc(C(=O)Nc2ccc(-c3ccccc3F)nc2)cc1C(=O)Nc1ccnc(C)c1 [Example 26, N^1-[6-(2-fluorophenyl)pyridin-3-yl]-4-methoxy-N^3-(2-methylpyridin-4-yl)isophthalamide] | ≥ 50 | 0.36
COc1ccc(NC(=O)c2ccc(-c3ccccc3)cc2)cc1C(=O)NCc1cccnc1 [Example 37, N-{4-methoxy-3-[(pyridin-3-ylmethyl)carbamoyl]phenyl} biphenyl-4-carboxamide] | 25 | 1.8
COc1ccc(C(=O)Nc2ccc(-c3ccccc3)cc2)cc1C(=O)Nc1cccnc1C [Example 62, N^1-(biphenyl-4-yl)-4-methoxy-N^3-(2-methylpyridin-3-yl)isophthalamide] | ≥ 50 | 45
Nc1ccc(CNC(=O)c2cc(C(=O)Nc3ccc(-c4ccccc4F)nc3)ccc2OC(F)(F)F)cn1 [Example 51, N^3-[(6-aminopyridin-3-yl)methyl]-N^1-[6-(2-fluorophenyl)pyridin-3-yl]-4-(trifluoromethoxy) isophthalamide] | 14 | 1.8
Cc1ccc(C(=O)Nc2ccc(-c3ccccc3)cc2)cc1C(=O)Nc1ccnc(F)c1 [Example 43, N^1-(biphenyl-4-yl)-N^3-(2-fluoropyridin-4-yl)-4-methylisophthalamide] | ≥ 50 | 1.37
COCCCNC(=O)c1cc(NC(=O)c2ccc(-c3ccccc3)cc2)ccc1OC [Example 2, N-{4-methoxy-3-[(3-methoxypropyl)carbamoyl]phenyl}biphenyl-4-carboxamide] | ≥ 50 | 0.495
CCc1cc(NC(=O)c2cc(NC(=O)c3ccc(-c4ccccc4)cc3)ccc2OC)ccn1 [Example 36, N-{3-[(2-ethylpyridin-4-yl)carbamoyl]-4-methoxyphenyl}biphenyl-4-carboxamide] | 29 | 1.43
COc1ccc(C(=O)Nc2ccc(-c3ccccc3)cc2)cc1C(=O)Nc1ccncc1F [Example 14, N^1-(biphenyl-4-yl)-N^3-(3-fluoropyridin-4-yl)-4-methoxyisophthalamide] | ≥ 50 | 0.144
COCC(C)(C)CNC(=O)c1cc(NC(=O)c2ccc(-c3ccccc3)cc2)ccc1OC [Example 35, N-{4-methoxy-3-[(3-methoxy-2,2-dimethylpropyl)carbamoyl]phenyl}biphenyl-4-carboxamide] | ≥ 50 | 4.35
O=C(Nc1ccc(-c2ccccc2)cc1)c1ccc(OC(F)(F)F)c(C(=O)NCc2cccnc2)c1 [Example 21, N^1-(biphenyl-4-yl)-N^3-(pyridin-3-ylmethyl)-4-(trifluoromethoxy)isophthalamide] | 32.5 | 0.16
Nc1cccc(CNC(=O)c2cc(C(=O)Nc3ccc(-c4ccccc4F)nc3)ccc2OC(F)(F)F)n1 [Example 49, N^3-[(6-aminopyridin-2-yl)methyl]-N^1-[6-(2-fluorophenyl)pyridin-3-yl]-4-(trifluoromethoxy) isophthalamide] | ≥ 50 | 4.8
COc1ccc(NC(=O)c2ccc(-c3ccccc3)cc2)cc1C(=O)NCc1ccccn1 [Example 32, N-{4-methoxy-3-[(pyridin-2-ylmethyl)carbamoyl]phenyl} biphenyl-4-carboxamide] | ≥ 50 | 1.33
COc1cc(NC(=O)c2cc(C(=O)Nc3ccc(-c4ccccc4)cc3)ccc2OC)ccn1 [Example 38, N^1-(biphenyl-4-yl)-4-methoxy-N^3-(2-methoxypyridin-4-yl)isophthalamide] | 21 | 1.11
COc1ccc(NC(=O)c2ccc(-c3ccccc3)cc2)cc1C(=O)Nc1ccncc1 [Example 1, N-[4-methoxy-3-(pyridin-4-ylcarbamoyl)phenyl]biphenyl-4-carboxamide] | 35 | 0.483
COc1ccc(C(=O)Nc2ccc(-c3ccccc3)cc2)cc1C(=O)NCc1ccccn1 [Example 39, N^1-(biphenyl-4-yl)-4-methoxy-N^3-(pyridin-2-ylmethyl)isophthalamide] | ≥ 50 | 3.4
O=C(Nc1ccc(-c2ccccc2)cc1)c1ccc(OC(F)(F)F)c(C(=O)Nc2ccncc2)c1 [Example 20, N^1-(biphenyl-4-yl)-N^3-(pyridin-4-yl)-4-(trifluoromethoxy)isophthalamide] | 7.55 | 0.335
COc1ccc(NC(=O)c2ccc(-c3ccccc3)cc2)cc1C(=O)Nc1ccnc(C)c1 [Example 3, N-{4-methoxy-3-[(2-methylpyridin-4-yl)carbamoyl]phenyl}biphenyl-4-carboxamide] | 28 | 0.0917
O=C(Nc1ccc(-c2cccnc2)cn1)c1ccc(OC(F)(F)F)c(C(=O)NCc2cccnc2)c1 [Example 30, N^1-(3,3′-bipyridin-6-yl)-N^3-(pyridin-3-ylmethyl)-4-(trifluoromethoxy)isophthalamide] | 31.5 | 0.42
CC(C)(C)OC(=O)Nc1ccc(CNC(=O)c2cc(C(=O)Nc3ccc(-c4ccccc4)cc3)ccc2OC(F)(F)F)cn1 [Example 24, tert-butyl [5-({[5-(biphenyl-4-ylcarbamoyl)-2-(trifluoromethoxy)benzoyl]amino}methyl)pyridin-2-yl]carbamate] | 23 | 0.835
COc1ccc(C(=O)Nc2ccc(-c3ccccc3)cc2)cc1C(=O)NCc1ccc(N)nc1 [Example 61, N^3-[(6-aminopyridin-3-yl)methyl]-N^1-(bipheny-4-yl)-4-methoxyisophthalamide] | ≥ 50 | 34
COCCNC(=O)c1cc(NC(=O)c2ccc(-c3ccccc3)cc2)ccc1OC [Example 31, N-{4-methoxy-3-[(2-methoxyethyl)carbamoyl]phenyl}biphenyl-4-carboxamide] | ≥ 50 | 4.59
COc1ccc(NC(=O)c2ccc(-c3ccccc3)cc2)cc1C(=O)Nc1ccncc1F [Example 8, N-{3-[(3-fluoropyridin-4-yl)carbamoyl]-4-methoxyphenyl}biphenyl-4-carboxamide] | ≥ 50 | 0.129
COc1ccc(NC(=O)c2ccc(-c3ccccc3)cc2)cc1C(=O)NCc1ccccc1 [Example 33, N-[3-(benzylcarbamoyl)-4-methoxyphenyl]biphenyl-4-carboxamide] | ≥ 50 | 3.35
O=C(Nc1ccc(-c2ccccc2F)nc1)c1ccc(OC(F)(F)F)c(C(=O)Nc2cccnc2)c1 [Example 57, N^1-[6-(2-fluorophenyl)pyridin-3-yl]-N^3-(pyridin-3-yl)-4-(trifluoromethoxy) isophthalamide] | 11 | 2.6
Cc1cnccc1NC(=O)c1cc(C(=O)Nc2ccc(-c3ccccc3F)nc2)ccc1OC(F)(F)F [Example 19, N^1-[6-(2-fluorophenyl)pyridin-3-yl]-N^3-(3-methylpyridin-4-yl)-4-(trifluoromethoxy)isophthalamide] | ≥ 50 | 0.878
Cc1cncc(NC(=O)c2cc(C(=O)Nc3ccc(-c4ccccc4)cc3)ccc2OC(F)(F)F)c1 [Example 47, N^1-(biphenyl-4-yl)-N^3-(5-methylpyridin-3-yl)-4-(trifluoromethoxy) isophthalamide] | ≥ 50 | 2.63
O=C(Nc1ccc(-c2ccccc2F)nc1)c1ccc(OC(F)(F)F)c(C(=O)NCc2cccnc2)c1 [Example 18, N^1-[6-(2-fluorophenyl)pyridin-3-yl]-N^3-(pyridin-3-ylmethyl)-4-(trifluoromethoxy)isophthalamide] | 18.5 | 0.95
Cc1ncccc1NC(=O)c1cc(C(=O)Nc2ccc(-c3ccccc3F)nc2)ccc1OC(F)(F)F [Example 58, N^1-[6-(2-fluorophenyl)pyridin-3-yl]-N^3-(2-methylpyridin-3-yl)-4-(trifluoromethoxy) isophthalamide] | 6.6 | 1.9
